The text below walks through data of PMC6009968, “Through scaffold modification to 3,5-diaryl-4,5-dihydroisoxazoles: new potent and selective inhibitors of monoamine oxidase B” (Journal of Enzyme Inhibition and Medicinal Chemistry, 2017).

Read-outs that look alike come from different tables or passages of the source. Marks after values point to notes of the source that are not given here.

In general, IC50 refers to the concentration that gives 50% inhibition.

In one experiment the target is T1, hMAO-A (Homo sapiens, UniProt P21397).
T1 sequence (P21397 1-527): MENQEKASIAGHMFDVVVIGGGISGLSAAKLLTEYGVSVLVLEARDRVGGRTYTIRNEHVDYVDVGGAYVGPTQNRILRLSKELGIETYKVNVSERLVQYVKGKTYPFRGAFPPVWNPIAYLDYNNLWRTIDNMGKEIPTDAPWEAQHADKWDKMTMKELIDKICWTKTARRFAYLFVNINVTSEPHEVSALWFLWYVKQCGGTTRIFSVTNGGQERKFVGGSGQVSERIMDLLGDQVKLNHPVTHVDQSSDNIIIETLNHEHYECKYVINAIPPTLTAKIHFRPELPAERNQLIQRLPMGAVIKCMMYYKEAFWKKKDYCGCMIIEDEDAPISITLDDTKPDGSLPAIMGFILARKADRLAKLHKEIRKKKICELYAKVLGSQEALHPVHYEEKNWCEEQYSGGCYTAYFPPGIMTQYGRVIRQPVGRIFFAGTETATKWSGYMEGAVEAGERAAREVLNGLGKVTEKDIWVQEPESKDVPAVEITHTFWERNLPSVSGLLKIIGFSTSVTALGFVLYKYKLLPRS
Nature of the experiment: Inhibition of human recombinant MAO A (Amplex Red assay).

Another experiment has as its target T2, hMAO-B (Homo sapiens, UniProt P27338).
T2 sequence (P27338 1-520): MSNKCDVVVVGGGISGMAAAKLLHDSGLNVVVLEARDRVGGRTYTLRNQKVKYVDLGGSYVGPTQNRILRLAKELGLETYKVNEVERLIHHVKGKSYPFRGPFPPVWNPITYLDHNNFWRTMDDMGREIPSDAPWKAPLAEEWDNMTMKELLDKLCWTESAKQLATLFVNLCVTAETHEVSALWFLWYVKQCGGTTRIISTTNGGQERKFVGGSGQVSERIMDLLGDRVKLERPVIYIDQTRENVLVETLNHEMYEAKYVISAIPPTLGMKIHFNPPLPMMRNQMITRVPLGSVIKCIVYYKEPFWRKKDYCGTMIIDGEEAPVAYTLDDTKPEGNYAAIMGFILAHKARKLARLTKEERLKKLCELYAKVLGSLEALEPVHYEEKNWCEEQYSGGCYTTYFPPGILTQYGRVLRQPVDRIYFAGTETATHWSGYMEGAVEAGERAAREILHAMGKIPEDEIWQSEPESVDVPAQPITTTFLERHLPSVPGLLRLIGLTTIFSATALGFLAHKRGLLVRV
Nature of the experiment: Inhibition of human recombinant MAO B (Amplex Red assay). As to conditions: for Ratio: assumes the inactive isoform IC50 is the highest concentration tested (100 μM); for Ratio, selectivity ratios [IC50(MAO-A)]/[IC50(MAO-B)]: bounds assume IC50 against MAO-A is the highest concentration tested (100 μM).

[1] abbreviates: read-out: MAO-A (IC50), Table 4, single enantiomers.
[2] abbreviates: read-out: MAO-B (IC50), Table 4, single enantiomers, mean ± SEM from five experiments.
The mark [3] stands for this setting: read-out: MAO-A (IC50), Table 3, highest concentration tested.
Setting [4] is: read-out: MAO-B (IC50), Table 3, mean ± SEM from five experiments.

In the case of `Cc1ccc(C2=NO[C@H](c3ccc(Cl)cc3)C2)cc1` [S-(+) EMAC II i], the IC50 at hMAO-A (setting [1]) is over 100000 nM; on hMAO-B (read-out: MAO-B (IC50), Table 4, single enantiomers), over 100000 nM.

Turning to `Cc1ccc(C2=NO[C@@H](c3ccc(Cl)c(Cl)c3)C2)cc1` [R-(−) EMAC II l], the IC50 on hMAO-A was over 100000 nM. Further, the “selectivity towards MAO B, increase of the enantiomer versus the racemic mixture” value on hMAO-B is given as “increased by more than six folds”. Besides, the Ratio at hMAO-B (Table 4, single enantiomers) is recorded as 52 910^b.

For `COc1ccc([C@H]2CC(c3ccc(C)cc3)=NO2)cc1` [R-(−) EMAC II m], the values for the IC50 on hMAO-A (setting [1]) and on hMAO-B (setting [2]) were over 100000 nM and 126 ± 8.44 nM, respectively. Besides, the Ratio at hMAO-B (Table 4, single enantiomers) was 792.6^b.

With `Cc1ccc(C2=NO[C@H](c3ccc(F)cc3)C2)cc1` [S-(+) EMAC II k], the IC50 at hMAO-A (setting [1]) is over 100000 nM. Besides, the Ratio on hMAO-B (Table 4, single enantiomers) is on record as 2956^b.

In the case of `Cc1ccc(C2=NOC(c3ccc(Cl)c(Cl)c3)C2)cc1` (racemic) [EMAC II l], the IC50 on hMAO-A (setting [3]) is over 100000 nM; at hMAO-B (setting [4]), 12 ± 0.37 nM. Moreover, the “Ratio, selectivity ratios [IC50(MAO-A)]/[IC50(MAO-B)]” value (from here on “Ratio, selectivity ratios”) on hMAO-B (Table 3) was >8354^d.

As to `Cc1ccc(C2=NOC(c3ccc(F)cc3)C2)cc1` (racemic) [EMAC II k], the IC50 at hMAO-A (setting [3]) was over 100000 nM; at hMAO-B (setting [4]), 320 ± 13.6 nM. Moreover, at hMAO-B (Table 3), the “Ratio, selectivity ratios” value is recorded as >312^d.

Take `COc1ccc([C@@H]2CC(c3ccc(C)cc3)=NO2)cc1` [S-(+) EMAC II m]: the IC50 is over 100000 nM on hMAO-A (setting [1]) and 292 ± 13.4 nM on hMAO-B (setting [2]). Besides, the Ratio at hMAO-B (Table 4, single enantiomers) is recorded as 342.6.

Consider `Cc1ccc(C2=NOC(c3ccc(Cl)cc3)C2)cc1` (centres unmarked) [EMAC II i], for which the IC50 was over 100000 nM on hMAO-A and 104 ± 3.69 nM at hMAO-B. Moreover, the “Ratio, selectivity ratios” value at hMAO-B (Table 3) is on record as >961^d.

With `Cc1ccc(C2=NOC(c3ccc(C)cc3)C2)cc1` (racemic) [EMAC II j], the IC50 on hMAO-A (setting [3]) is over 100000 nM; on hMAO-B (setting [4]), 41 ± 1.52 nM. In addition, the “Ratio, selectivity ratios” value at hMAO-B (Table 3) is given as >2436^d.

In the case of `Cc1ccc(C2=NO[C@@H](c3ccc(C)cc3)C2)cc1` [R-(−) EMAC II j], the IC50 at hMAO-A (setting [1]) is over 100000 nM; at hMAO-B (setting [2]), 2.55 ± 0.11 nM. Further, the Ratio on hMAO-B (Table 4, single enantiomers) is given as 39 216^b.

For the molecule `Cc1ccc(C2=NO[C@H](c3ccc(C)cc3)C2)cc1` [S-(+) EMAC II j], the IC50 on hMAO-A (setting [1]) was over 100000 nM. In addition, the Ratio at hMAO-B (Table 4, single enantiomers) is recorded as 3188^b.

As for `COc1ccc(C2CC(c3ccc(C)cc3)=NO2)cc1` (racemic) [EMAC II m], the IC50 was over 100000 nM on hMAO-A (setting [3]) and 450 ± 18 nM at hMAO-B (setting [4]). Moreover, the “Ratio, selectivity ratios” value on hMAO-B (Table 3) is recorded as >222^d.

On to `Cc1ccc(C2=NO[C@@H](c3ccc(F)cc3)C2)cc1` [R-(−) EMAC II k], for which the IC50 at hMAO-A (setting [1]) was over 100000 nM; on hMAO-B (setting [2]), 300 ± 12 nM. Besides, the Ratio on hMAO-B (Table 4, single enantiomers) is 333.5^b.

Take `Cc1ccc(C2=NO[C@@H](c3ccc(Cl)cc3)C2)cc1` [R-(−) EMAC II i]: the IC50 at hMAO-A is over 100000 nM; on hMAO-B, 15.3 ± 0.95 nM. Moreover, the Ratio at hMAO-B (Table 4, single enantiomers) was 6549^b.

Take `Cc1ccc(C2=NO[C@H](c3ccc(Cl)c(Cl)c3)C2)cc1` [S-(+) EMAC II l]: the IC50 at hMAO-A was over 100000 nM. Further, the Ratio at hMAO-B (Table 4, single enantiomers) was 9124.
